Source: US20140323501A1, “AMINO-PROPYLENE-GLYCOL DERIVATIVES, PREPARATION METHOD AND PHARMACEUTICAL COMPOSITION AND USE THEREOF” (INSTITUTE OF MATERIA MEDICA, CHINESE ACADEMY OF MEDICAL …, priority 2011, published 2014)

Legend:
[1] = test system: SD rat heart rate; experiment: Effect of S1P1 receptor agonists on rat heart rate; format: in vivo; parameters: heart rate 0: unit not given beside the values; conditions: for heart rate 0.5 h / heart rate 1 h / heart rate 3 h / heart rate 6 h / heart rate 8 h / heart rate 24 h / heart rate 0 / heart rate pre-administration: intragastric; for heart rate 0: time 0, before administration; for HR delta %: (lowest heart rate postdose − pre-administration)/pre-administration; for heart rate pre-administration: before administration
[2] = test system: SD rat peripheral blood lymphocyte counts; experiment: Effect of S1P1 receptor agonists on rat vein (peripheral) blood lymphocyte counts; format: in vivo; conditions: 10 mg/Kg intragastric; for LYM 0 h: before administration; for Δ %: largest decrease of lymphocyte count vs 0 h; for LYM 24 h: 24 h after administration; for compared with 0 h (%) 1 h / compared with 0 h (%) 2 h / compared with 0 h (%) 4 h / compared with 0 h (%) 8 h / compared with 0 h (%) 12 h / compared with 0 h (%) 24 h: lymphocyte count change vs 0 h
Experimental: 10 mg of drugs were measured and placed in a mortar. After 4 mL of 5‰ CMC-Na were added, homogenous suspension was prepared in the mortar (one drop of twain-80 was added to help dissolving). Dosage: 10 mg/Kg, dose volume: 0.4 mL/100 g, intragastric administration.
Every medicated group was assigned three rats.
After the experimental animals stable in the clean environment for 24 h, 10 μL of blood was withdrawn via tail vein and diluted into 2 mL of diluents quickly. […] Then the prepared drugs were administered intragastrically to the animals. […] The animals were killed after 24 h.

[3] = test system: lymphocyte proliferation / cytotoxic T lymphocytes; conditions: MLR and CTL; background, Fujita et al.; cited from earlier work
[4] = Table 2, 0.5 h after administration
[5] = Table 2, 1 h after administration
[6] = Table 2, 3 h after administration
[7] = Table 2, 6 h after administration
[8] = Table 2, 8 h after administration
[9] = Table 2, 24 h after administration
[10] = Table 1, 1 h after administration
[11] = Table 1, 2 h after administration
[12] = Table 1, 4 h after administration
[13] = Table 1, 8 h after administration
[14] = Table 1, 12 h after administration

NC(CO)(CO)CCc1ccc(Oc2ccc(-c3coc(C4CC4)n3)cc2)cc1 [Syl955]
Δ % = the percentage of change of rat heart rate before and after administration ([1]; Table 4): 21.72% | heart rate 0.5 h ([1]; Table 4, 0.5 h): 373.00 | heart rate 1 h ([1]; Table 4, 1 h): 384.75 | heart rate 3 h ([1]; Table 4, 3 h): 338.25 | heart rate 6 h ([1]; Table 4, 6 h): 335.50 | heart rate 8 h ([1]; Table 4, 8 h): 351.50 | heart rate 24 h ([1]; Table 4, 24 h): 353.90 | heart rate 0 ([1]; Table 4): 428.63 | LYM 0 h ([2]; Table 3): 7.40 ± 2.18 ×10^9/L | LYM 1 h ([2]; Table 3, 1 h): 6.27 ± 0.78 ×10^9/L | LYM 2 h ([2]; Table 3, 2 h): 6.87 ± 0.90 ×10^9/L | LYM 4 h ([2]; Table 3, 4 h): 6.83 ± 1.26 ×10^9/L | LYM 6 h ([2]; Table 3): 8.33 ± 2.70 ×10^9/L | LYM 8 h ([2]; Table 3, 8 h): 6.53 ± 1.42 ×10^9/L | LYM 12 h ([2]; Table 3, 12 h): 2.90 ± 0.95 ×10^9/L | LYM 23 h ([2]; Table 3): 4.93 ± 1.07 ×10^9/L | Δ % ([2]; Table 3): 60.81%

NC(CO)(CO)CC(O)c1ccc(Oc2ccc(-c3coc(C4CC4)n3)cc2)cc1 (centres unmarked) [Syl963]
Δ % = the percentage of change of rat heart rate before and after administration ([1]; Table 4): 4.58% | heart rate 0.5 h ([1]; Table 4, 0.5 h): 388.38 | heart rate 1 h ([1]; Table 4, 1 h): 378.36 | heart rate 3 h ([1]; Table 4, 3 h): 377.36 | heart rate 6 h ([1]; Table 4, 6 h): 366.88 | heart rate 8 h ([1]; Table 4, 8 h): 362.50 | heart rate 24 h ([1]; Table 4, 24 h): 369.05 | heart rate 0 ([1]; Table 4): 395.50 | LYM 0 h ([2]; Table 3): 6.90 ± 0.95 ×10^9/L | LYM 1 h ([2]; Table 3, 1 h): 4.67 ± 1.50 ×10^9/L | LYM 2 h ([2]; Table 3, 2 h): 5.07 ± 2.10 ×10^9/L | LYM 4 h ([2]; Table 3, 4 h): 6.67 ± 0.81 ×10^9/L | LYM 6 h ([2]; Table 3): 4.57 ± 1.29 ×10^9/L | LYM 8 h ([2]; Table 3, 8 h): 4.13 ± 0.84 ×10^9/L | LYM 12 h ([2]; Table 3, 12 h): 4.20 ± 2.52 ×10^9/L | LYM 23 h ([2]; Table 3): 2.43 ± 0.91 ×10^9/L | Δ % ([2]; Table 3): 64.73%

CC(C)c1nc(-c2ccc(Oc3ccc(C(O)CC(N)(CO)CO)cc3)cc2)co1 (centres unmarked) [Syl962]
Δ % = the percentage of change of rat heart rate before and after administration ([1]; Table 4): 13.58% | heart rate 0.5 h ([1]; Table 4, 0.5 h): 397.13 | heart rate 1 h ([1]; Table 4, 1 h): 374.88 | heart rate 3 h ([1]; Table 4, 3 h): 358.58 | heart rate 6 h ([1]; Table 4, 6 h): 343.63 | heart rate 8 h ([1]; Table 4, 8 h): 337.00 | heart rate 24 h ([1]; Table 4, 24 h): 331.89 | heart rate 0 ([1]; Table 4): 390.00 | LYM 0 h ([2]; Table 3): 8.03 ± 1.15 ×10^9/L | LYM 1 h ([2]; Table 3, 1 h): 5.60 ± 0.90 ×10^9/L | LYM 2 h ([2]; Table 3, 2 h): 5.83 ± 1.54 ×10^9/L | LYM 4 h ([2]; Table 3, 4 h): 6.27 ± 1.42 ×10^9/L | LYM 6 h ([2]; Table 3): 3.63 ± 0.38 ×10^9/L | LYM 8 h ([2]; Table 3, 8 h): 2.67 ± 0.67 ×10^9/L | LYM 12 h ([2]; Table 3, 12 h): 3.10 ± 0.56 ×10^9/L | LYM 23 h ([2]; Table 3): 2.43 ± 0.59 ×10^9/L | Δ % ([2]; Table 3): 69.70%

CCCc1nc(-c2ccc(Oc3ccc(C(O)CC(N)(CO)CO)cc3)cc2)co1 (centres unmarked) [Syl961]
Δ % = the percentage of change of rat heart rate before and after administration ([1]; Table 4): 11.64% | heart rate 0.5 h ([1]; Table 4, 0.5 h): 382.56 | heart rate 1 h ([1]; Table 4, 1 h): 364.33 | heart rate 3 h ([1]; Table 4, 3 h): 379.45 | heart rate 6 h ([1]; Table 4, 6 h): 344.36 | heart rate 8 h ([1]; Table 4, 8 h): 363.08 | heart rate 24 h ([1]; Table 4, 24 h): 363.27 | heart rate 0 ([1]; Table 4): 389.75 | LYM 0 h ([2]; Table 3): 7.90 ± 2.46 ×10^9/L | LYM 1 h ([2]; Table 3, 1 h): 8.57 ± 2.55 ×10^9/L | LYM 2 h ([2]; Table 3, 2 h): 6.40 ± 0.98 ×10^9/L | LYM 4 h ([2]; Table 3, 4 h): 6.33 ± 2.25 ×10^9/L | LYM 6 h ([2]; Table 3): 5.83 ± 1.88 ×10^9/L | LYM 8 h ([2]; Table 3, 8 h): 3.93 ± 1.78 ×10^9/L | LYM 12 h ([2]; Table 3, 12 h): 3.67 ± 1.68 ×10^9/L | LYM 23 h ([2]; Table 3): 2.63 ± 0.31 ×10^9/L | Δ % ([2]; Table 3): 66.67%

CC(C)c1nc(-c2ccc(Oc3ccc(CCC(N)(CO)CO)cc3)cc2)co1 [Syl935]
HR delta % ([1]; Table 2): 15.90% | heart rate 0.5 h [1, 4]: 387.18 | heart rate 1 h [1, 5]: 405.20 | heart rate 3 h [1, 6]: 384.20 | heart rate 6 h [1, 7]: 352.44 | heart rate 8 h [1, 8]: 373.33 | heart rate 24 h [1, 9]: 398.50 | heart rate pre-administration ([1]; Table 2): 419.00 | LYM 0 h ([2]; Table 1): 4.77 ± 0.21 × 10^9/L | LYM 1 h [2, 10]: 3.73 ± 1.23 × 10^9/L | LYM 2 h [2, 11]: 2.70 ± 1.05 × 10^9/L | LYM 4 h [2, 12]: 2.77 ± 0.72 × 10^9/L | LYM 8 h [2, 13]: 2.10 ± 0.36 × 10^9/L | LYM 12 h [2, 14]: 1.17 ± 0.31 × 10^9/L | LYM 24 h ([2]; Table 1): 1.73 ± 0.29 × 10^9/L | compared with 0 h (%) 1 h ([2]; Table 1, 1 h): 21.68% | compared with 0 h (%) 2 h ([2]; Table 1, 2 h): 43.36% | compared with 0 h (%) 4 h ([2]; Table 1, 4 h): 41.96% | compared with 0 h (%) 8 h ([2]; Table 1, 8 h): 55.94% | compared with 0 h (%) 12 h ([2]; Table 1, 12 h): 75.52% | compared with 0 h (%) 24 h ([2]; Table 1): 63.64%

CCCCc1ccc(Oc2ccc(CCC(N)(CO)CO)cc2)cc1 [Syl926]
HR delta % ([1]; Table 2): 9.60% | heart rate 0.5 h [1, 4]: 361.91 | heart rate 1 h [1, 5]: 346.80 | heart rate 3 h [1, 6]: 327.09 | heart rate 6 h [1, 7]: 340.82 | heart rate 8 h [1, 8]: 318.55 | heart rate 24 h [1, 9]: 354.80 | heart rate pre-administration ([1]; Table 2): 352.85 | LYM 0 h ([2]; Table 1): 5.17 ± 2.12 × 10^9/L | LYM 1 h [2, 10]: 3.40 ± 0.20 × 10^9/L | LYM 2 h [2, 11]: 2.57 ± 0.84 × 10^9/L | LYM 4 h [2, 12]: 2.33 ± 0.90 × 10^9/L | LYM 8 h [2, 13]: 1.40 ± 0.79 × 10^9/L | LYM 12 h [2, 14]: 1.33 ± 0.42 × 10^9/L | LYM 24 h ([2]; Table 1): 1.37 ± 0.31 × 10^9/L | compared with 0 h (%) 1 h ([2]; Table 1, 1 h): 34.19% | compared with 0 h (%) 2 h ([2]; Table 1, 2 h): 50.32% | compared with 0 h (%) 4 h ([2]; Table 1, 4 h): 54.84% | compared with 0 h (%) 8 h ([2]; Table 1, 8 h): 72.90% | compared with 0 h (%) 12 h ([2]; Table 1, 12 h): 74.19% | compared with 0 h (%) 24 h ([2]; Table 1): 73.55%

CCc1nc(-c2ccc(Oc3ccc(CCC(N)(CO)CO)cc3)cc2)co1 [Syl934]
HR delta % ([1]; Table 2): 2.4% | heart rate 0.5 h [1, 4]: 376.00 | heart rate 1 h [1, 5]: 369.10 | heart rate 3 h [1, 6]: 337.86 | heart rate 6 h [1, 7]: 338.09 | heart rate 8 h [1, 8]: 362.55 | heart rate 24 h [1, 9]: 365.89 | heart rate pre-administration ([1]; Table 2): 346.00 | LYM 0 h ([2]; Table 1): 4.17 ± 0.40 × 10^9/L | LYM 1 h [2, 10]: 3.60 ± 0.69 × 10^9/L | LYM 2 h [2, 11]: 2.47 ± 0.23 × 10^9/L | LYM 4 h [2, 12]: 2.87 ± 0.55 × 10^9/L | LYM 8 h [2, 13]: 1.83 ± 0.68 × 10^9/L | LYM 12 h [2, 14]: 1.17 ± 0.49 × 10^9/L | LYM 24 h ([2]; Table 1): 1.33 ± 0.32 × 10^9/L | compared with 0 h (%) 1 h ([2]; Table 1, 1 h): 13.60% | compared with 0 h (%) 2 h ([2]; Table 1, 2 h): 40.80% | compared with 0 h (%) 4 h ([2]; Table 1, 4 h): 31.20% | compared with 0 h (%) 8 h ([2]; Table 1, 8 h): 56.00% | compared with 0 h (%) 12 h ([2]; Table 1, 12 h): 72.00% | compared with 0 h (%) 24 h ([2]; Table 1): 68.00%

CCc1nc(-c2ccc(Sc3ccc(CCC(N)(CO)CO)cc3)cc2)co1 [Syl974]
Δ % = the percentage of change of rat heart rate before and after administration ([1]; Table 4): 4.81% | heart rate 0.5 h ([1]; Table 4, 0.5 h): 382.63 | heart rate 1 h ([1]; Table 4, 1 h): 388.00 | heart rate 3 h ([1]; Table 4, 3 h): 396.19 | heart rate 6 h ([1]; Table 4, 6 h): 368.56 | heart rate 8 h ([1]; Table 4, 8 h): 364.11 | heart rate 24 h ([1]; Table 4, 24 h): 363.13 | heart rate 0 ([1]; Table 4): 381.50 | LYM 0 h ([2]; Table 3): 6.55 ± 0.21 ×10^9/L | LYM 1 h ([2]; Table 3, 1 h): 4.63 ± 0.61 ×10^9/L | LYM 2 h ([2]; Table 3, 2 h): 5.27 ± 1.27 ×10^9/L | LYM 4 h ([2]; Table 3, 4 h): 5.20 ± 0.61 ×10^9/L | LYM 6 h ([2]; Table 3): 5.77 ± 0.40 ×10^9/L | LYM 8 h ([2]; Table 3, 8 h): 4.67 ± 0.61 ×10^9/L | LYM 12 h ([2]; Table 3, 12 h): 2.23 ± 0.59 ×10^9/L | LYM 23 h ([2]; Table 3): 4.47 ± 1.36 ×10^9/L | Δ % ([2]; Table 3): 65.9%

CCCCCCC(=O)CCCCCC/C=C/C[C@@H](O)[C@H](O)[C@@](N)(CO)C(=O)O [ISP-I, myriocin]
activity relative to cyclosporine [3]: 10 fold
